This note sets out measurements from US7880007B2, “Bicyclic substituted phenyl piperidine modulators of muscarinic receptors” (Vertex Pharmaceuticals Incorporated, priority 2004, dated 2011).

One may read the Emax as the size of the effect at its maximum, as opposed to the concentration needed.

Common to all, as to format: cell-based
One experiment addresses T1, M3 muscarinic receptor (Homo sapiens, UniProt P20309).
T1 construct: expressed in transfected cells; host or cells: CHO (M3-CHO)
In words: Functional mobilization of intracellular calcium (FLIPR), M3-CHO cells. As to conditions: for M3 Activity: M3-CHO cells, calcium mobilization (FLIPR). An outline of the steps:
(§1)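 FLIPR fluorescence (ex 488, em 540 nm) recorded 60 sec after compound addition to dye-loaded CHO cells. Agonist mode: compound alone. Antagonist mode: 15 min compound pre-incubation, then carbachol at EC80, or co-application. Efficacy expressed as % of maximal carbachol response.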

The next experiment addresses T2, M1 muscarinic receptor (Homo sapiens, UniProt P11229).
T2 construct: expressed in transfected cells; host or cells: CHO (M1-CHO)
T2 sequence (P11229 1-460): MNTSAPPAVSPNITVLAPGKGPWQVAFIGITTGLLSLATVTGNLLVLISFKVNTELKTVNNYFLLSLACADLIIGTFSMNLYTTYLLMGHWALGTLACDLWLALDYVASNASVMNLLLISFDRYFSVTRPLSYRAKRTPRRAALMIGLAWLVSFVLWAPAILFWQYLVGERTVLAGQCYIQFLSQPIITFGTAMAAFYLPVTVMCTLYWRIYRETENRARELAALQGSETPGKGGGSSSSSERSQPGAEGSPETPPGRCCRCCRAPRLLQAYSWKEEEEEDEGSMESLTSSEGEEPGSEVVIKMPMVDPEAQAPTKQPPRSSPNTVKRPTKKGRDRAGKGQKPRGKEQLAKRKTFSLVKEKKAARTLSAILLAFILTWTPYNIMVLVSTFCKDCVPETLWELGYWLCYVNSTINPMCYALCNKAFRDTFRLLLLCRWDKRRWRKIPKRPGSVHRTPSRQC
Briefly: Functional mobilization of intracellular calcium (FLIPR), M1-CHO cells. The conditions noted are these: for M1 Activity: M1-CHO cells, calcium mobilization (FLIPR). The essentials: as §1
For orientation: Calcium assays in cells follow changes in intracellular calcium, usually with a dye or a luminescent sensor.

A further experiment has as its target T3, M2 muscarinic receptor (Homo sapiens, UniProt P08172).
T3 construct: expressed in transfected cells; host or cells: CHO (M2-CHO)
T3 sequence (P08172 1-466): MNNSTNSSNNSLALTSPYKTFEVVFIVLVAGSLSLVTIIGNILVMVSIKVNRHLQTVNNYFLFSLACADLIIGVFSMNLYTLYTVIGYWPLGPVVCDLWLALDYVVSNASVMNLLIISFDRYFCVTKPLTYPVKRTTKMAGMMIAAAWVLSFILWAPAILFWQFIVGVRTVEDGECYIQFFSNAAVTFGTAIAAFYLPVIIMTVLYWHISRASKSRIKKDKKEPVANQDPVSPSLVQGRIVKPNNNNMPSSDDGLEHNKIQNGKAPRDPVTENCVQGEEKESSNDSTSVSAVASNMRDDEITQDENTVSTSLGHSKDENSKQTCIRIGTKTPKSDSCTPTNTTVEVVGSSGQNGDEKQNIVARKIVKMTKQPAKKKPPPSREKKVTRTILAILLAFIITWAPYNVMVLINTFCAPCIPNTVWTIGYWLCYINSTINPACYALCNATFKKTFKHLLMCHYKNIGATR
In words: Functional mobilization of intracellular calcium (FLIPR), M2-CHO cells. The conditions noted are these: for M2 Activity: M2-CHO cells, calcium mobilization (FLIPR). An outline of the steps:
as §1

The next experiment has as its target T4, M4 muscarinic receptor (Homo sapiens, UniProt P08173).
T4 construct: expressed in transfected cells; host or cells: CHO (M4-CHO)
T4 sequence (P08173 1-479): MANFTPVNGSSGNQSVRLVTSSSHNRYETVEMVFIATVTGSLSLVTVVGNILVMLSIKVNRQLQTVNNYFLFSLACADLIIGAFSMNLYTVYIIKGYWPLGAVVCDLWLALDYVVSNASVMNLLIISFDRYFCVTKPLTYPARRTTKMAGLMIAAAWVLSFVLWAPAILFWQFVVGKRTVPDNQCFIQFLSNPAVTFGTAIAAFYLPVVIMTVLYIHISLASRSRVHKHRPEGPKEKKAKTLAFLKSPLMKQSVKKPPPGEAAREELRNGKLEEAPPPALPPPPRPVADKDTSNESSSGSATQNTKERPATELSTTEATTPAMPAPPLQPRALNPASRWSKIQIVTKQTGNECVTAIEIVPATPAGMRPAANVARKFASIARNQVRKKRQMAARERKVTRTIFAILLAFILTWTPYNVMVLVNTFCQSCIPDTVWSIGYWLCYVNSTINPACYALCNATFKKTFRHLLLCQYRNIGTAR
Briefly: Functional mobilization of intracellular calcium (FLIPR), M4-CHO cells. As to conditions: for M4 Activity: M4-CHO cells, calcium mobilization (FLIPR). The essentials: as §1

[1] abbreviates: 100% efficacy = maximum response obtained with the Carbachol control.
Setting [2] is: 100% efficacy is the maximum response obtained with the Carbachol control.

T1 sequence (P20309 whole entry): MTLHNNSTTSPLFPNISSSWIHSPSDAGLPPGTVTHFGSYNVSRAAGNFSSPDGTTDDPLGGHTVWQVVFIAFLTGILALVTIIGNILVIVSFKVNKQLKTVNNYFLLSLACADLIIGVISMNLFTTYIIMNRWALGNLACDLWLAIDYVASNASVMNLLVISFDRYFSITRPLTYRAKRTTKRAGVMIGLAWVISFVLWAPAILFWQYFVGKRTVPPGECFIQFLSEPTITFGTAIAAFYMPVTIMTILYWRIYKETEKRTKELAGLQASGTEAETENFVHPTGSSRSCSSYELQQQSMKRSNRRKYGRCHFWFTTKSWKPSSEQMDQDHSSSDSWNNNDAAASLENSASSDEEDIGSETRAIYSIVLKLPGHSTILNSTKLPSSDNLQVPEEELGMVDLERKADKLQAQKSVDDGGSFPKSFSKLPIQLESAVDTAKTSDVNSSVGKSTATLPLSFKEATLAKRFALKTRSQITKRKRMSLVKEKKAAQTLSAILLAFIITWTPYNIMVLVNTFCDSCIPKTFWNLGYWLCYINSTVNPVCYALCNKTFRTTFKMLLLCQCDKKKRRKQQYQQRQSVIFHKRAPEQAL

As to `CCOC(=O)N1CCC(N2CCC(F)(c3cc(Cl)ccc3OC)CC2)CC1` [Compound 368], the “M3 Efficacy” value at M3 muscarinic receptor (setting [1]) is given as “+ (efficacy was calculated to be less than 25%)”. For the same molecule, at M3 muscarinic receptor, the “M3 Activity” value is on record as “+ (activity was measured to be greater than 5.0 μM)”. Also, the “M1 Efficacy” value at M1 muscarinic receptor (setting [1]) is listed as “++ (efficacy was calculated to be from 100% to 25%)”. For the same molecule, on M1 muscarinic receptor, the “M1 Activity” value is “++ (activity was measured to be from 1.0 μM to 5.0 μM)”. In addition, the “M2 Efficacy” value on M2 muscarinic receptor (setting [1]) is “++ (efficacy was calculated to be from 100% to 25%)”. Besides, on M2 muscarinic receptor, the “M2 Activity” value was “++ (activity was measured to be from 1.0 μM to 5.0 μM)”. Also, the “M4 Efficacy” value at M4 muscarinic receptor (setting [1]) is “++ (efficacy was calculated to be from 100% to 25%)”. In addition, the “M4 Activity” value on M4 muscarinic receptor is on record as “+++ (activity was measured to be less than 1.0 μM)”.
On to `COc1ccccc1C1CCN(CC2CCOC2)CC1` (centres unmarked) [Compound 369], for which the maximal response (Emax) was under 25% at M3 muscarinic receptor (setting [1]), 25 to 100% on M1 muscarinic receptor (setting [1]), under 25% on M2 muscarinic receptor (setting [1]) and 25 to 100% on M4 muscarinic receptor (setting [1]). Further, the “M3 Activity” value at M3 muscarinic receptor was “+ (activity was measured to be greater than 5.0 μM)”. Besides, the “M1 Activity” value on M1 muscarinic receptor was “+ (activity was measured to be greater than 5.0 μM)”. The “M2 Activity” value on M2 muscarinic receptor was “+ (activity was measured to be greater than 5.0 μM)”. Also, the “M4 Activity” value at M4 muscarinic receptor is given as “++ (activity was measured to be from 1.0 μM to 5.0 μM)”.
As to `COc1ccccc1C1CCN(C2CCC(C3CCC(=O)CC3)CC2)CC1` (centres unmarked) [Compound 370], the Emax at M3 muscarinic receptor (setting [1]) was under 25%; at M1 muscarinic receptor (setting [1]), under 25%; on M2 muscarinic receptor (setting [1]), under 25%; on M4 muscarinic receptor (setting [1]), 25 to 100%. Moreover, the “M3 Activity” value on M3 muscarinic receptor is recorded as “+ (activity was measured to be greater than 5.0 μM)”. Also, the “M1 Activity” value on M1 muscarinic receptor is “+ (activity was measured to be greater than 5.0 μM)”. In addition, the “M2 Activity” value on M2 muscarinic receptor is “+ (activity was measured to be greater than 5.0 μM)”. The “M4 Activity” value on M4 muscarinic receptor was “++ (activity was measured to be from 1.0 μM to 5.0 μM)”.
In the case of `COc1ccc(F)cc1C1CCN(C2CC3CCC2C3)CC1` (centres unmarked) [Compound 371], the Emax at M3 muscarinic receptor (setting [1]) was under 25%; on M1 muscarinic receptor (setting [1]), 25 to 100%; on M2 muscarinic receptor (setting [1]), 25 to 100%; on M4 muscarinic receptor (setting [1]), 25 to 100%. For the same molecule, the “M3 Activity” value on M3 muscarinic receptor is given as “+ (activity was measured to be greater than 5.0 μM)”. For the same molecule, at M1 muscarinic receptor, the “M1 Activity” value is “++ (activity was measured to be from 1.0 μM to 5.0 μM)”. Also, on M2 muscarinic receptor, the “M2 Activity” value was “++ (activity was measured to be from 1.0 μM to 5.0 μM)”. The “M4 Activity” value at M4 muscarinic receptor is recorded as “+++ (activity was measured to be less than 1.0 μM)”.
Consider `COc1ccc(Cl)cc1C1CCN(C2(C)CCOCC2)CC1` [Compound 372], for which the Emax at M3 muscarinic receptor (setting [2]) was under 25%; on M1 muscarinic receptor (setting [2]) it was 25 to 100%; on M2 muscarinic receptor (setting [2]), 25 to 100%; at M4 muscarinic receptor (setting [2]), 25 to 100%. Also, the “M3 Activity” value at M3 muscarinic receptor is “+ (activity was measured to be greater than 5.0 μM)”. The “M1 Activity” value at M1 muscarinic receptor is “++ (activity was measured to be from 1.0 μM to 5.0 μM)”. For the same molecule, on M2 muscarinic receptor, the “M2 Activity” value is given as “++ (activity was measured to be from 1.0 μM to 5.0 μM)”. Further, at M4 muscarinic receptor, the “M4 Activity” value is reported as “+++ (activity was measured to be less than 1.0 μM)”.
In the case of `COc1ccccc1C1(C#N)CCN(CC2CCOCC2)CC1` [Compound 373], the Emax at M3 muscarinic receptor (setting [2]) was under 25%; at M1 muscarinic receptor (setting [2]) it was under 25%; at M2 muscarinic receptor (setting [2]), under 25%; on M4 muscarinic receptor (setting [2]), 25 to 100%. The “M3 Activity” value on M3 muscarinic receptor is “+ (activity was measured to be greater than 5.0 μM)”. In addition, the “M1 Activity” value at M1 muscarinic receptor is reported as “+ (activity was measured to be greater than 5.0 μM)”. The “M2 Activity” value at M2 muscarinic receptor is “+ (activity was measured to be greater than 5.0 μM)”. At M4 muscarinic receptor, the “M4 Activity” value was “+ (activity was measured to be greater than 5.0 μM)”.
With `COc1ccccc1C1CCN(C2CCCC(O)CCC2)CC1` (centres unmarked) [Compound 374], the Emax at M3 muscarinic receptor (setting [2]) was under 25%; at M1 muscarinic receptor (setting [2]), under 25%; on M2 muscarinic receptor (setting [2]), under 25%; on M4 muscarinic receptor (setting [2]) it was 25 to 100%. Besides, the “M3 Activity” value on M3 muscarinic receptor is reported as “+ (activity was measured to be greater than 5.0 μM)”. Also, on M1 muscarinic receptor, the “M1 Activity” value is “+ (activity was measured to be greater than 5.0 μM)”. Also, the “M2 Activity” value at M2 muscarinic receptor was “+ (activity was measured to be greater than 5.0 μM)”. Further, the “M4 Activity” value on M4 muscarinic receptor was “++ (activity was measured to be from 1.0 μM to 5.0 μM)”.
